According to paper PMC5218480 (PLoS ONE, 2017):

System: MV-4-11 cells
Experiment: Gene expression microarray analysis (Affymetrix PrimeView) and GSEA
Type: cell-based, human
Set-up: RFU PODN (11730768_x_at) / Fold change /veh PODN (11730768_x_at) / RFU LINC00158 (11744669_a_at) / Fold change /veh LINC00158 (11744669_a_at) / RFU DUSP10 (11751237_a_at) / Fold change /veh DUSP10 (11751237_a_at) / RFU ID3 (11757404_x_at) / Fold change /veh ID3 (11757404_x_at) / RFU PLEKHG5 (11737974_s_at) / Fold change /veh PLEKHG5 (11737974_s_at) / RFU LRRC4B (11730491_at) / Fold change /veh LRRC4B (11730491_at) / RFU GIMAP4 (11747438_a_at) / Fold change /veh GIMAP4 (11747438_a_at) / RFU KRT8 (11758183_x_at) / Fold change /veh KRT8 (11758183_x_at) / RFU CNN1 (11734310_a_at) / Fold change /veh CNN1 (11734310_a_at) / RFU VPS37D (11726825_at) / Fold change /veh VPS37D (11726825_at) / RFU C10orf10 (11716522_x_at) / Fold change /veh C10orf10 (11716522_x_at) / RFU KIR2DL2 /// KIR2DL4 /// KIR2DL5A /// KIR2DL5B /// KIR2DS1 /// KIR2DS2 /// KIR2DS3 /// KIR2DS4 /// KIR3DL3 /// KIR3DL3 /// KIR3DS1 (11738374_at) / Fold change /veh KIR2DL2 /// KIR2DL4 /// KIR2DL5A /// KIR2DL5B /// KIR2DS1 /// KIR2DS2 /// KIR2DS3 /// KIR2DS4 /// KIR3DL3 /// KIR3DL3 /// KIR3DS1 (11738374_at) / RFU C1QL1 (11718748_at) / Fold change /veh C1QL1 (11718748_at) / RFU TMPRSS4 (11747572_a_at) / Fold change /veh TMPRSS4 (11747572_a_at) / RFU HAMP (11756126_x_at) / Fold change /veh HAMP (11756126_x_at) / RFU RNFT2 (11725882_a_at) / Fold change /veh RNFT2 (11725882_a_at) / RFU NR4A2 (11747474_a_at) / Fold change /veh NR4A2 (11747474_a_at) / RFU ABCC12 (11746883_a_at) / Fold change /veh ABCC12 (11746883_a_at) / RFU TMEM136 (11760407_x_at) / Fold change /veh TMEM136 (11760407_x_at) / RFU CLDN22 /// WWC2 (11732394_at) / Fold change /veh CLDN22 /// WWC2 (11732394_at) / RFU HLA-DPB1 (11760878_x_at) / Fold change /veh HLA-DPB1 (11760878_x_at) / RFU SPINT1 (11716480_a_at) / Fold change /veh SPINT1 (11716480_a_at) / RFU GAP43 (11754022_s_at) / Fold change /veh GAP43 (11754022_s_at) / RFU A4GNT (11735810_at) / Fold change /veh A4GNT (11735810_at) / RFU PRB3 (11715151_x_at) / Fold change /veh PRB3 (11715151_x_at) / RFU TUBB4B (11761932_at) / Fold change /veh TUBB4B (11761932_at) / RFU CAPN14 (11732068_a_at) / Fold change /veh CAPN14 (11732068_a_at) / RFU TMCC2 (11721928_a_at) / Fold change /veh TMCC2 (11721928_a_at) / RFU IRGQ (11745062_a_at) / Fold change /veh IRGQ (11745062_a_at) / RFU FAM174B (11720279_a_at) / Fold change /veh FAM174B (11720279_a_at) / RFU TMPRSS4 (11748680_a_at) / Fold change /veh TMPRSS4 (11748680_a_at) / RFU FAM212B (11763350_a_at) / Fold change /veh FAM212B (11763350_a_at) / RFU PLEKHG5 (11743358_a_at) / Fold change /veh PLEKHG5 (11743358_a_at) / RFU ZSCAN30 (11745921_a_at) / Fold change /veh ZSCAN30 (11745921_a_at) / RFU CMKLR1 (11741424_a_at) / Fold change /veh CMKLR1 (11741424_a_at) / RFU LOC101060620 /// MAPK8IP1 (11723275_at) / Fold change /veh LOC101060620 /// MAPK8IP1 (11723275_at) / RFU SPTSSB (11747773_x_at) / Fold change /veh SPTSSB (11747773_x_at) / RFU PRSS12 (11739890_at) / Fold change /veh PRSS12 (11739890_at) / RFU BIN1 (11741810_x_at) / Fold change /veh BIN1 (11741810_x_at) / RFU WNT11 (11732464_a_at) / Fold change /veh WNT11 (11732464_a_at) / RFU C10orf10 (11716521_a_at) / Fold change /veh C10orf10 (11716521_a_at) / RFU C5orf56 (11738089_at) / Fold change /veh C5orf56 (11738089_at) / RFU CYB561 (11721691_x_at) / Fold change /veh CYB561 (11721691_x_at) / RFU ANKRD19P (11752326_a_at) / Fold change /veh ANKRD19P (11752326_a_at) / RFU OR2T12 /// OR2T33 /// OR2T8 (11738714_s_at) / Fold change /veh OR2T12 /// OR2T33 /// OR2T8 (11738714_s_at) / RFU VCAN (11748164_a_at) / Fold change /veh VCAN (11748164_a_at) / RFU JSRP1 (11732532_at) / Fold change /veh JSRP1 (11732532_at) / RFU KRTAP10-11 (11738290_x_at) / Fold change /veh KRTAP10-11 (11738290_x_at) / RFU MYO3A (11730013_a_at) / Fold change /veh MYO3A (11730013_a_at) / RFU EBF3 (11725865_a_at) / Fold change /veh EBF3 (11725865_a_at) / RFU CAMK2N1 (11719241_x_at) / Fold change /veh CAMK2N1 (11719241_x_at) / RFU C5orf56 (11738088_a_at) / Fold change /veh C5orf56 (11738088_a_at) / RFU OLFML3 (11715873_a_at) / Fold change /veh OLFML3 (11715873_a_at) / RFU LOC100653217 /// NTM (11731650_a_at) / Fold change /veh LOC100653217 /// NTM (11731650_a_at) / RFU MAPK11 (11762145_a_at) / Fold change /veh MAPK11 (11762145_a_at) / RFU FIZ1 (11724087_x_at) / Fold change /veh FIZ1 (11724087_x_at) / RFU OASL (11726364_x_at) / Fold change /veh OASL (11726364_x_at) / RFU SOX15 (11748057_x_at) / Fold change /veh SOX15 (11748057_x_at) / RFU CD79A (11719716_a_at) / Fold change /veh CD79A (11719716_a_at) / RFU HIST1H1D (11736915_at) / Fold change /veh HIST1H1D (11736915_at) / RFU CASKIN2 (11723855_a_at) / Fold change /veh CASKIN2 (11723855_a_at) / RFU LOC730098 (11760151_x_at) / Fold change /veh LOC730098 (11760151_x_at) / RFU OR4N2 (11742367_at) / Fold change /veh OR4N2 (11742367_at) / RFU PRRT2 (11749266_a_at) / Fold change /veh PRRT2 (11749266_a_at) / RFU SNX32 (11753110_a_at) / Fold change /veh SNX32 (11753110_a_at) / RFU CDHR5 (11726645_a_at) / Fold change /veh CDHR5 (11726645_a_at) / RFU RCAN1 (11760418_a_at) / Fold change /veh RCAN1 (11760418_a_at) / RFU FAM167A (11723789_a_at) / Fold change /veh FAM167A (11723789_a_at) / RFU FAM26E (11764081_at) / Fold change /veh FAM26E (11764081_at) / RFU ISYNA1 (11749810_s_at) / Fold change /veh ISYNA1 (11749810_s_at) / RFU ACY1 (11761880_at) / Fold change /veh ACY1 (11761880_at) / RFU 11764098_at / Fold change /veh 11764098_at / RFU SAMD14 (11745864_x_at) / Fold change /veh SAMD14 (11745864_x_at) / RFU NPB (11741838_a_at) / Fold change /veh NPB (11741838_a_at) / RFU TMPRSS6 (11731388_a_at) / Fold change /veh TMPRSS6 (11731388_a_at) / RFU KRTAP10-2 (11738614_at) / Fold change /veh KRTAP10-2 (11738614_at) / RFU ARHGAP8 /// PRR5-ARHGAP8 (11727945_x_at) / Fold change /veh ARHGAP8 /// PRR5-ARHGAP8 (11727945_x_at) / RFU KRTAP5-7 /// NADSYN1 (11734609_at) / Fold change /veh KRTAP5-7 /// NADSYN1 (11734609_at) / RFU RASL12 (11751679_a_at) / Fold change /veh RASL12 (11751679_a_at) / RFU CDKN2B (11736163_a_at) / Fold change /veh CDKN2B (11736163_a_at) / RFU PRF1 (11729649_at) / Fold change /veh PRF1 (11729649_at) / RFU, ZNF638 /// ZNF638-IT1 / Fold change vs veh, ZNF638 /// ZNF638-IT1 / RFU, PANK3 / Fold change vs veh, PANK3 / RFU, SH3YL1 / Fold change vs veh, SH3YL1 / RFU, ZEB2 / Fold change vs veh, ZEB2 / RFU, NRIP1 / Fold change vs veh, NRIP1 / RFU, PTTG1IP / Fold change vs veh, PTTG1IP / RFU, CAPN2 / Fold change vs veh, CAPN2 / RFU, MED14 / Fold change vs veh, MED14 / RFU, SNORA58 / Fold change vs veh, SNORA58 / RFU, C1orf63 / Fold change vs veh, C1orf63 / RFU, LRRFIP1 / Fold change vs veh, LRRFIP1 / RFU, NDUFAF7 / Fold change vs veh, NDUFAF7 / RFU, SLC12A2 / Fold change vs veh, SLC12A2 / RFU, IBTK / Fold change vs veh, IBTK / RFU, ESF1 / Fold change vs veh, ESF1 / Fold change vs veh, TMEM50B / RFU, TAOK1 / Fold change vs veh, TAOK1 / RFU, ACBD3 / Fold change vs veh, ACBD3 / RFU, TMA16 / Fold change vs veh, TMA16 / RFU, RWDD3 / Fold change vs veh, RWDD3 / RFU, BCAT1 / Fold change vs veh, BCAT1 / RFU, EDEM3 / Fold change vs veh, EDEM3 / RFU, TMEM33 / Fold change vs veh, TMEM33 / RFU, WDR75 / Fold change vs veh, WDR75 / RFU, AHCTF1 / Fold change vs veh, AHCTF1 / RFU, TFRC / Fold change vs veh, TFRC / RFU, ZDHHC17 / Fold change vs veh, ZDHHC17 / RFU, NOM1 / Fold change vs veh, NOM1 / RFU, ARL8B / Fold change vs veh, ARL8B / RFU, ZBTB11 / Fold change vs veh, ZBTB11 / RFU, TAMM41 / Fold change vs veh, TAMM41 / RFU, KIAA1704 /// LOC100996395 / Fold change vs veh, KIAA1704 /// LOC100996395 / RFU, ING1 / Fold change vs veh, ING1 / RFU, TRMT61B / Fold change vs veh, TRMT61B / RFU, FUBP3 / Fold change vs veh, FUBP3 / RFU, TP53 / Fold change vs veh, TP53 / RFU, TNKS2 / Fold change vs veh, TNKS2 / RFU, ZFP14 / Fold change vs veh, ZFP14 / RFU, ACTR2 / Fold change vs veh, ACTR2 / RFU, PPP3R1 / Fold change vs veh, PPP3R1 / RFU, PIK3R1 / Fold change vs veh, PIK3R1 / RFU, HNRNPA1 / Fold change vs veh, HNRNPA1 / RFU, RNF170 / Fold change vs veh, RNF170 / RFU, ZNF28 / Fold change vs veh, ZNF28 / RFU, RNGTT / Fold change vs veh, RNGTT / RFU, OGT / Fold change vs veh, OGT / RFU, BRD1 / Fold change vs veh, BRD1 / RFU, MARS / Fold change vs veh, MARS / RFU, ZNF655 / Fold change vs veh, ZNF655 / RFU, FAHD1 / Fold change vs veh, FAHD1 / RFU, BDP1 / Fold change vs veh, BDP1 / RFU, LRRCC1 / Fold change vs veh, LRRCC1 / RFU, ARID1A / Fold change vs veh, ARID1A / RFU, ZNF146 / Fold change vs veh, ZNF146 / RFU, ZNF330 / Fold change vs veh, ZNF330 / RFU, GPN3 / Fold change vs veh, GPN3 / RFU, C9orf123 / Fold change vs veh, C9orf123 / RFU, N4BP2L2 / Fold change vs veh, N4BP2L2 / RFU, ARFIP1 / Fold change vs veh, ARFIP1 / RFU, FAM179B / Fold change vs veh, FAM179B / RFU, BCL10 / Fold change vs veh, BCL10 / RFU, UHRF1BP1L / Fold change vs veh, UHRF1BP1L / RFU, BET1 / Fold change vs veh, BET1 / RFU, CNOT2 / Fold change vs veh, CNOT2 / RFU, ZNF268 / Fold change vs veh, ZNF268 / Fold change vs veh, ZNF507 / RFU, DGCR2 / Fold change vs veh, DGCR2 / RFU, WDSUB1 / Fold change vs veh, WDSUB1 / Fold change vs veh, HSP90B1 /// MIR3652 / RFU, ADSS / Fold change vs veh, ADSS / RFU, GK / Fold change vs veh, GK / RFU, ZNF148 / Fold change vs veh, ZNF148 / RFU, TAF9 / Fold change vs veh, TAF9 / RFU, SLC1A5 / Fold change vs veh, SLC1A5 / RFU, SLMO2 / Fold change vs veh, SLMO2 / RFU, ABCC4 / Fold change vs veh, ABCC4 / RFU, LOC101060439 /// RAP1B / Fold change vs veh, LOC101060439 /// RAP1B / RFU, RFX7 / Fold change vs veh, RFX7 / RFU, GTPBP10 / Fold change vs veh, GTPBP10 / RFU, CNEP1R1 / Fold change vs veh, CNEP1R1 / RFU, BIVM-ERCC5 /// ERCC5 / Fold change vs veh, BIVM-ERCC5 /// ERCC5 / RFU, ILF3 / Fold change vs veh, ILF3 / RFU 11762660_at / Fold change /veh 11762660_at / RFU VCAN (11757783_s_at) / Fold change /veh VCAN (11757783_s_at) / RFU DDX43 (11728927_at) / Fold change /veh DDX43 (11728927_at) / RFU KRT8 (11758188_x_at) / Fold change /veh KRT8 (11758188_x_at) / RFU NKD1 (11759106_at) / Fold change /veh NKD1 (11759106_at) / RFU SRD5A1 (11742802_a_at) / Fold change /veh SRD5A1 (11742802_a_at) / RFU TPSAB1 /// TPSB2 (11721975_s_at) / Fold change /veh TPSAB1 /// TPSB2 (11721975_s_at) / RFU GSTM3 (11746129_a_at) / Fold change /veh GSTM3 (11746129_a_at) / RFU IL23R (11737362_x_at) / Fold change /veh IL23R (11737362_x_at) / RFU TMEM51 (11727254_a_at) / Fold change /veh TMEM51 (11727254_a_at) / RFU PIWIL2 (11732686_x_at) / Fold change /veh PIWIL2 (11732686_x_at) / RFU ORM1 (11744905_x_at) / Fold change /veh ORM1 (11744905_x_at) / RFU CCDC152 (11743942_at) / Fold change /veh CCDC152 (11743942_at) / RFU ECM1 (11717891_a_at) / Fold change /veh ECM1 (11717891_a_at) / RFU IL23R (11748794_a_at) / Fold change /veh IL23R (11748794_a_at) / RFU TNFAIP8L3 (11732012_x_at) / Fold change /veh TNFAIP8L3 (11732012_x_at) / RFU MBOAT4 (11741988_at) / Fold change /veh MBOAT4 (11741988_at) / RFU 11764193_at / Fold change /veh 11764193_at / RFU TMEM53 (11763286_at) / Fold change /veh TMEM53 (11763286_at) / RFU MAGEB2 (11727129_at) / Fold change /veh MAGEB2 (11727129_at) / RFU TMEM200A (11744735_a_at) / Fold change /veh TMEM200A (11744735_a_at) / RFU CCDC152 (11751479_a_at) / Fold change /veh CCDC152 (11751479_a_at) / RFU FAM211A (11726209_a_at) / Fold change /veh FAM211A (11726209_a_at) / RFU RGS16 (11746705_a_at) / Fold change /veh RGS16 (11746705_a_at) / RFU VCAN (11755009_s_at) / Fold change /veh VCAN (11755009_s_at) / RFU RHOB (11743442_s_at) / Fold change /veh RHOB (11743442_s_at) / RFU RGS16 (11720943_a_at) / Fold change /veh RGS16 (11720943_a_at) / RFU RGS16 (11720944_at) / Fold change /veh RGS16 (11720944_at) / RFU, VPS4B / Fold change vs veh, VPS4B / RFU, CREB1 / Fold change vs veh, CREB1 / RFU, DNAJC13 / Fold change vs veh, DNAJC13 / RFU, GNAQ / Fold change vs veh, GNAQ / RFU, CDK5R1 / Fold change vs veh, CDK5R1 / RFU, ZRANB3 / Fold change vs veh, ZRANB3 / RFU, CUL4A / Fold change vs veh, CUL4A / RFU, CCNY / Fold change vs veh, CCNY / RFU, UFL1 / Fold change vs veh, UFL1 / RFU, COG3 / Fold change vs veh, COG3 / RFU, DIAPH2 / Fold change vs veh, DIAPH2 / RFU, SKA2 / Fold change vs veh, SKA2 / RFU, AFF3 / Fold change vs veh, AFF3 / RFU, LMF1 / Fold change vs veh, LMF1 / RFU, IPO11 / Fold change vs veh, IPO11 / RFU, DFFB / Fold change vs veh, DFFB / RFU, FOXP1 / Fold change vs veh, FOXP1 / RFU, CARD8 / Fold change vs veh, CARD8 / RFU, STRN3 / Fold change vs veh, STRN3 / RFU, ADK / Fold change vs veh, ADK / RFU, RASSF2 / Fold change vs veh, RASSF2 / RFU, WIPF1 / Fold change vs veh, WIPF1 / RFU, LARP1B / Fold change vs veh, LARP1B / RFU, RASA1 / Fold change vs veh, RASA1 / RFU, RB1 / Fold change vs veh, RB1 / RFU, PPFIA1 / Fold change vs veh, PPFIA1 / RFU, MAT2A / Fold change vs veh, MAT2A / RFU, CCT5 / Fold change vs veh, CCT5 / RFU, WDR92 / Fold change vs veh, WDR92 / RFU, CUX1 / Fold change vs veh, CUX1 / RFU, TTC7A / Fold change vs veh, TTC7A / RFU, TMEM135 / Fold change vs veh, TMEM135 / RFU, DEPTOR / Fold change vs veh, DEPTOR / RFU, CPM / Fold change vs veh, CPM / RFU, DNAJB6 / Fold change vs veh, DNAJB6 / RFU, CACNA2D3 / Fold change vs veh, CACNA2D3 / RFU, DTX4 / Fold change vs veh, DTX4 / RFU, TFCP2 / Fold change vs veh, TFCP2 / RFU, GMCL1 /// GMCL1P1 / Fold change vs veh, GMCL1 /// GMCL1P1 / RFU, AEBP2 / Fold change vs veh, AEBP2 / RFU, SNHG1 /// SNORD22 /// SNORD25 /// SNORD26 /// SNORD27 /// SNORD28 /// SNORD29 /// SNORD31 / Fold change vs veh, SNHG1 /// SNORD22 /// SNORD25 /// SNORD26 /// SNORD27 /// SNORD28 /// SNORD29 /// SNORD31 / Fold change (Aza/veh), C12orf56 (ProbeSet 11735607_a_at) / Fold change (ACY-1035/veh), C12orf56 (ProbeSet 11735607_a_at) / Fold change (Aza/veh), FGFR1OP (ProbeSet 11751329_s_at) / Fold change (ACY-1035/veh), FGFR1OP (ProbeSet 11751329_s_at) / Fold change (Aza/veh), VPS36 (ProbeSet 11739960_a_at) / Fold change (ACY-1035/veh), VPS36 (ProbeSet 11739960_a_at) / RFU SYPL1 (11715823_x_at) / Fold change /veh SYPL1 (11715823_x_at) / RFU IGFBP7 (11715501_s_at) / Fold change /veh IGFBP7 (11715501_s_at) / RFU REEP3 (11722064_at) / Fold change /veh REEP3 (11722064_at) / RFU IGLL1 (11728026_x_at) / Fold change /veh IGLL1 (11728026_x_at): dose or concentration left out as unconfirmed
Conditions: MV-4-11 cells, 48 hours

Structure (SMILES): Nc1ncn([C@@H]2O[C@H](CO)[C@@H](O)[C@H]2O)c(=O)n1 [azacitidine]
- RFU ORM1 (11744905_x_at): 10.48 RFU
